Experimental data: US12576169B2, “Silicon-fluoride acceptor substituted radiopharmaceuticals and precursors thereof” (Technische Universität München, priority 2019, dated 2026)
Like-named read-outs stand apart in the source and are kept apart here. *1 amine or outer side, *2 acyl side, *3 side chain or, on linkers, in order; H or OH if unused. Where a SMILES comes first, the peptide text is derived from it. Side-chain parts run from the residue outwards. [ ]: non-standard residue; d: D form. The star is where a group is joined. X1 = O=C(O)CC[C@H](NC(=O)N[C@@H](CCC(=O)N[C@H](CCCN*)C(=O)O)C(=O)O)C(=O)O; Benzoyl(4-SiFtBu2) = CC(C)(C)[Si](F)(c1ccc(C(=O)*)cc1)C(C)(C)C; γGlu = O=C(O)[C@H](CCC(=O)[*:2])N[*:1]; dCit = NC(=O)NCCC[C@@H](N)C(=O)O; Suc = O=C(CCC(=O)[*:2])[*:1]; dOrn = NCCC[C@@H](N)C(=O)O; dDap = NC[C@@H](N)C(=O)O; CO = O=C([*:1])[*:2]

What was measured:
LNCaP cells = test: Internalization of 18F-labeled ligands into LNCaP cells; format: cell-based, human; conditions: internalized activity at 1 h in % of reference [125I]XII; c = 0.5 nM; LNCaP cells (125.000 cells/well); 37° C., DMEM/F-12 add. 5% BSA; corrected for non-specific binding (10 μm PMPA); mean ± SD (n = 3)
Method: LNCaP cells were grown in DMEM/F-12 (add. 10% FCS, v/v) and maintained at 37° C. in a humidified 5% CO2 atmosphere. […] Subsequent to the removal of the culture medium, cells were washed with DMEM-F12 (add. 5% BSA, v/v, 500 μL) and left to equilibrate in DMEM-F12 (add. 5% BSA, v/v, 200 μL) at 37° C. for 15 min. Each well was treated with either DMEM-F12 (add. 5% BSA, v/v, 25 μL) or a 2-(phosphonomethyl)-pentandioic acid (PMPA) solution (100 μM in PBS, 25 μL) for blockade. Afterwards, the ^18F-labeled SiFA-PSMA ligand (5 nM in PBS, 25 μL) was added and the cells were incubated for 1 h at 37° C. The experiment was terminated by placing the 24-well plate on ice for 3 min and removal of the assay medium. Each well was rinsed with HBSS (4° C., 250 μL) and the fractions were combined with the previous assay medium, representing the amount of unbound radioligand. For removal of surface bound activity, LNCaP cells were incubated with PMPA solution (10 μM in PBS, 4° C., 250 μL) for 5 min and rinsed again with PBS (250 μL, 4° C.). The internalized activity was determined by incubation of LNCaP cells with 1 M aq. NaOH (250 μL) for at least 10 min and combination with the fraction of a subsequent wash step with 1 M aq. NaOH (200 μL). Each experiment (control and blockade) was performed in triplicate. […] All internalization studies were accompanied by reference studies using the reference compound XII (2 nM in HBSS add. 1% BSA, v/v), which were performed analogously. Data were corrected for non-specific internalization and normalized to the specific-internalization observed for the radioiodinated reference compound.

[1] = target: T1, human serum albumin (HSA) (Homo sapiens, UniProt P02768); test: Binding to HSA on a Chiralpak HSA column; format: in vitro ADME; conditions: calibration with nine reference substances
T1 construct: purchased H13H-2433
T1 sequence (P02768 25-609): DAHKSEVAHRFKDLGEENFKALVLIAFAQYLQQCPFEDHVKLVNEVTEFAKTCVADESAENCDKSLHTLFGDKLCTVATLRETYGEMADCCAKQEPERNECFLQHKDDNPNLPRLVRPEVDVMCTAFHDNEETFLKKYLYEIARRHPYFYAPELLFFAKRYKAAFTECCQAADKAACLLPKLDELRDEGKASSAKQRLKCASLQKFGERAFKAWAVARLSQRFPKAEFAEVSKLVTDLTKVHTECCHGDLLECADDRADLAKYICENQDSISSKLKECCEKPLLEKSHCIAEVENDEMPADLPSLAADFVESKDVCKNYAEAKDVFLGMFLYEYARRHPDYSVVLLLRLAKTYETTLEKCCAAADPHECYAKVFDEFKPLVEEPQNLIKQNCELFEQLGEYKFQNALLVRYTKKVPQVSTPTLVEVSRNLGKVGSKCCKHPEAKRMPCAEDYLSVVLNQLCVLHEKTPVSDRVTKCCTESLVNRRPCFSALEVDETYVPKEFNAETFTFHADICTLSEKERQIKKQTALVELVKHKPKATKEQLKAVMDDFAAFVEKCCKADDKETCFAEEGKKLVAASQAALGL
Method: For the determination of human serum albumin (HSA) binding, a Chiralpak HSA column (50×3 mm, 5 μm, H13H-2433) was used at a constant flow rate of 0.5 mL/min. The mobile phase composed of a 50 mM NH4OAc solution in water with pH=7 (solvent C) and isopropanol (solvent D) was freshly prepared for each experiment and used only once. The reference substances (Table 1) as well as the analyzed SiFA-PSMA ligands were dissolved in a mixture of solvent C/solvent D (1:1, v/v, 0.5 mg/mL) and eluted from the HSA column (0-3 min: 100% C, 3-20 min: 20% D in C, λ=254 nm). The column was kept at rt and each run was stopped after detection of the signal to reduce the acquisition time. The nine reference substances display an HSA binding range of 13% to 99% and were injected consecutively in order to establish a sigmoidal calibration curve with the software OriginPro 2018b (FIG. 1).

[2] = n-Octanol-PBS partition coefficient (logD7.4); format: physicochemical; conditions: 18F-labeled ligand; n-octanol/PBS pH=7.4; mean ± SD (n = 5)
Method: Approx. 0.5 MBq of the ^18F-labeled SiFA-PSMA ligand were added into a test tube containing n-octanol (500 μL) and PBS (500 μL, pH=7.4). After vigorously shaking the two-phase mixture for 3 min at rt, the test tube was centrifuged at 9.000 rpm for 5 min to achieve quantitative phase separation. Finally, 150 μL of each layer were pipetted off and measured for activity using a gamma counter. After repeating the experiment for at least five times, the n-octanol-PBS partition coefficient log D7.4 was calculated according to following formula.

PSMA = PSMA (Homo sapiens, UniProt Q04609); test: IC50 determination: PSMA binding affinity, competition with [125I]XII on LNCaP cells
Sequence of PSMA (Q04609 whole entry): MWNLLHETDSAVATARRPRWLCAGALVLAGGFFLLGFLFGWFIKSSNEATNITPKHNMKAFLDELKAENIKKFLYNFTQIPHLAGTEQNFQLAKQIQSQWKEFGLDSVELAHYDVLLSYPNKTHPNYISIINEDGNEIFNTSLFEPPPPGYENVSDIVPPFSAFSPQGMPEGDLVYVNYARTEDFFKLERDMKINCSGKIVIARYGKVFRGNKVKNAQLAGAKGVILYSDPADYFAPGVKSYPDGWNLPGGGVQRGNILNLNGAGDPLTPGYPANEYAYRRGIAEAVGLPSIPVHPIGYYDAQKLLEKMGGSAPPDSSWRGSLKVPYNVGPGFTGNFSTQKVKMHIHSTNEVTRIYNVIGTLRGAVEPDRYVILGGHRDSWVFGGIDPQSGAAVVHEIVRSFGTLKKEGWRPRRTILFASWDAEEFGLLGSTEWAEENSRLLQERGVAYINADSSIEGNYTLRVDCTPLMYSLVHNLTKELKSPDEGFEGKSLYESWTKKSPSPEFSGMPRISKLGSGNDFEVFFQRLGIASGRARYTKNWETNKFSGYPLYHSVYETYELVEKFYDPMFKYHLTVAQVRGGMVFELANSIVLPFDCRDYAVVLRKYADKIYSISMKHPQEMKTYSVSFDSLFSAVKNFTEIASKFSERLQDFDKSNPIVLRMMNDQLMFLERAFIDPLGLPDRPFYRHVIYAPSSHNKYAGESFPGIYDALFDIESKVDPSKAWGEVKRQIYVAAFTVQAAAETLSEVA
Method: LNCaP cells were grown in Dulbecco's Modified Eagle Medium/Nutrient Mixture F-12 (DMEM/F-12, add. 10% fetal calf serum (FCS), v/v) and maintained at 37° C. in a humidified 5% CO2 atmosphere. […] After removal of the culture medium, LNCaP cells were treated with HBSS (add. 1% BSA, v/v, 4° C., 500 μL) and subsequently left 15 min on ice for equilibration in HBSS (add. 1% BSA, v/v, 4° C., 200 μL). […] For the control series, HBSS (add. 1% BSA, v/v, 25 μL) was used instead of the SiFA-PSMA ligand solution. Each concentration and the control were prepared in triplicate. After 1 h incubation on ice, the assay medium was removed and cells were washed with HBSS (200 μL, 4° C.). […] NaOH (200 μL) for at least 10 min and the resulting cell lysate was removed. The wells were treated again with 1 M aq. […] The experiment was repeated for at least three times and the IC50 value calculated using the GraphPad PRISM 8.0.2 software (Graphpad Software Inc., La Jolla, United States).

[3] = LNCaP cells (150.000 cells/well), reference [125I]XII c = 0.2 nM, 1 h, 4° C., HBSS add. 1% BSA, mean ± SD (n = 3)

| Structure (SMILES) | Internalization (LNCaP cells) | Binding to HSA [1] | logD7.4 [2] | IC50 (PSMA) | IC50 (PSMA; [3]) |
| --- | --- | --- | --- | --- | --- |
| CC(C)(C)[Si](F)(c1ccc(C(=O)NC[C@@H](NC(=O)CCCCCNC(=O)CC[C@@H](NC(=O)N[C@H](CCC(=O)O)C(=O)O)C(=O)O)C(=O)N[C@H](CCCCNC(=O)CCC(=O)NCCC[C@@H](NC(=O)CC[C@H](NC(=O)N[C@@H](CCC(=O)O)C(=O)O)C(=O)O)C(=O)O)C(=O)O)cc1)C(C)(C)C [SiFA-PSMA ligand 02 d] | 119.56 ± 5.84% | ≥98.9% | −3.24 ± 0.03 | 9.9 ± 0.8 nM | – |
| CC(C)(C)[Si](F)(c1ccc(C(=O)NC[C@@H](NC(=O)CNC(=O)CNC(=O)CNC(=O)CC[C@H](NC(=O)N[C@@H](CCC(=O)O)C(=O)O)C(=O)O)C(=O)N[C@H](CCCCNC(=O)CCC(=O)NCCC[C@@H](NC(=O)CC[C@H](NC(=O)N[C@@H](CCC(=O)O)C(=O)O)C(=O)O)C(=O)O)C(=O)O)cc1)C(C)(C)C [SiFA-PSMA ligand 02 e] ({Glu-CO-γGlu}-GGG[dDap](Benzoyl(4-SiFtBu2))[dK]([Suc-X1])-OH) | 190.26 ± 16.87% | ≥98.9% | −3.50 ± 0.04 | 9 ± 2.2 nM | – |
| CC(C)(C)[Si](F)(c1ccc(C(=O)NC[C@@H](NC(=O)[C@@H](CC(=O)O)NC(=O)[C@@H](CCC(=O)O)NC(=O)[C@H](N)CCC(=O)O)C(=O)N[C@H](CCCCNC(=O)CCC(=O)NCCC[C@@H](NC(=O)CC[C@H](NC(=O)N[C@@H](CCC(=O)O)C(=O)O)C(=O)O)C(=O)O)C(=O)O)cc1)C(C)(C)C [SiFA-PSMA ligand 03 a] (H-[dE][dE][dD][dDap](Benzoyl(4-SiFtBu2))[dK]([Suc-X1])-OH) | 135.74 ± 6.70% | 98.8% | −3.80 ± 0.06 | – | 9.3 ± 1.7 nM |
| CC(C)(C)[Si](F)(c1ccc(C(=O)NC[C@@H](NC(=O)[C@@H](CCC(=O)O)NC(=O)[C@@H](CCC(=O)O)NC(=O)[C@H](N)CCC(=O)O)C(=O)N[C@H](CCCCNC(=O)CCC(=O)NCCC[C@@H](NC(=O)CC[C@H](NC(=O)N[C@@H](CCC(=O)O)C(=O)O)C(=O)O)C(=O)O)C(=O)O)cc1)C(C)(C)C [SiFA-PSMA ligand 03 b] (H-[dE][dE][dE][dDap](Benzoyl(4-SiFtBu2))[dK]([Suc-X1])-OH) | 135.78 ± 5.50% | 98.9% | −3.85 ± 0.04 | – | 8.8 ± 1 nM |
| CC(C)(C)[Si](F)(c1ccc(C(=O)NC[C@@H](NC(=O)[C@@H](CCCNC(N)=O)NC(=O)[C@@H](CCC(=O)O)NC(=O)[C@H](N)CCC(=O)O)C(=O)N[C@H](CCCCNC(=O)CCC(=O)NCCC[C@@H](NC(=O)CC[C@H](NC(=O)N[C@@H](CCC(=O)O)C(=O)O)C(=O)O)C(=O)O)C(=O)O)cc1)C(C)(C)C [SiFA-PSMA ligand 03 c] (H-[dE][dE][dCit][dDap](Benzoyl(4-SiFtBu2))[dK]([Suc-X1])-OH) | 87.55 ± 2.28% | 98.6% | −3.31 ± 0.02 | – | 11.7 ± 1.5 nM |
| CC(C)(C)[Si](F)(c1ccc(C(=O)NC[C@@H](NC(=O)[C@@H](CN)NC(=O)[C@@H](CCC(=O)O)NC(=O)[C@H](N)CCC(=O)O)C(=O)N[C@H](CCCCNC(=O)CCC(=O)NCCC[C@@H](NC(=O)CC[C@H](NC(=O)N[C@@H](CCC(=O)O)C(=O)O)C(=O)O)C(=O)O)C(=O)O)cc1)C(C)(C)C [SiFA-PSMA ligand 03 d] (H-[dE][dE][dDap][dDap](Benzoyl(4-SiFtBu2))[dK]([Suc-X1])-OH) | 171.82 ± 9.57% | 97.2% | −3.42 ± 0.05 | – | 9.1 ± 0.8 nM |
| CC(C)(C)[Si](F)(c1ccc(C(=O)NC[C@@H](NC(=O)[C@@H](CCCN)NC(=O)[C@@H](CCC(=O)O)NC(=O)[C@H](N)CCC(=O)O)C(=O)N[C@H](CCCCNC(=O)CCC(=O)NCCC[C@@H](NC(=O)CC[C@H](NC(=O)N[C@@H](CCC(=O)O)C(=O)O)C(=O)O)C(=O)O)C(=O)O)cc1)C(C)(C)C [SiFA-PSMA ligand 03 e] (H-[dE][dE][dOrn][dDap](Benzoyl(4-SiFtBu2))[dK]([Suc-X1])-OH) | 111.98 ± 3.90% | 97.5% | −3.40 ± 0.17 | – | 8.5 ± 1.2 nM |
| CC(C)(C)[Si](F)(c1ccc(C(=O)NC[C@@H](NC(=O)[C@@H](CCCCN)NC(=O)[C@@H](CCC(=O)O)NC(=O)[C@H](N)CCC(=O)O)C(=O)N[C@H](CCCCNC(=O)CCC(=O)NCCC[C@@H](NC(=O)CC[C@H](NC(=O)N[C@@H](CCC(=O)O)C(=O)O)C(=O)O)C(=O)O)C(=O)O)cc1)C(C)(C)C [SiFA-PSMA ligand 03 f] (H-[dE][dE][dK][dDap](Benzoyl(4-SiFtBu2))[dK]([Suc-X1])-OH) | 94.24 ± 6.01% | 96.9% | −3.43 ± 0.02 | – | 6.9 ± 1 nM |
| CC(C)(C)[Si](F)(c1ccc(C(=O)NC[C@@H](NC(=O)CNC(=O)[C@@H](CCC(=O)O)NC(=O)[C@H](N)CCC(=O)O)C(=O)N[C@H](CCCCNC(=O)CCC(=O)NCCC[C@@H](NC(=O)CC[C@H](NC(=O)N[C@@H](CCC(=O)O)C(=O)O)C(=O)O)C(=O)O)C(=O)O)cc1)C(C)(C)C [SiFA-PSMA ligand 03 g] | 121.44 ± 3.72% | 98.4% | −3.56 ± 0.04 | – | 11.9 ± 2 nM |
| C[C@H](O)[C@@H](NC(=O)[C@@H](CCC(=O)O)NC(=O)[C@H](N)CCC(=O)O)C(=O)N[C@H](CNC(=O)c1ccc([Si](F)(C(C)(C)C)C(C)(C)C)cc1)C(=O)N[C@H](CCCCNC(=O)CCC(=O)NCCC[C@@H](NC(=O)CC[C@H](NC(=O)N[C@@H](CCC(=O)O)C(=O)O)C(=O)O)C(=O)O)C(=O)O [SiFA-PSMA ligand 03 h] (H-[dE][dE][dT][dDap](Benzoyl(4-SiFtBu2))[dK]([Suc-X1])-OH) | 107.42 ± 3.66% | 97.8% | −3.66 ± 0.03 | – | 10.7 ± 2.1 nM |
| CC(C)(C)[Si](F)(c1ccc(C(=O)NC[C@@H](NC(=O)[C@@H](Cc2ccccc2)NC(=O)[C@@H](CCC(=O)O)NC(=O)[C@H](N)CCC(=O)O)C(=O)N[C@H](CCCCNC(=O)CCC(=O)NCCC[C@@H](NC(=O)CC[C@H](NC(=O)N[C@@H](CCC(=O)O)C(=O)O)C(=O)O)C(=O)O)C(=O)O)cc1)C(C)(C)C [SiFA-PSMA ligand 03 i] (H-[dE][dE][dF][dDap](Benzoyl(4-SiFtBu2))[dK]([Suc-X1])-OH) | 50.33 ± 2.97% | 98.9% | −2.30 ± 0.03 | – | 20.6 ± 1.8 nM |
| CC(C)(C)[Si](F)(c1ccc(C(=O)NC[C@@H](NC(=O)[C@H](N)CNC(=O)[C@@H](CCC(=O)O)NC(=O)[C@H](N)CCC(=O)O)C(=O)N[C@H](CCCCNC(=O)CCC(=O)NCCC[C@@H](NC(=O)CC[C@H](NC(=O)N[C@@H](CCC(=O)O)C(=O)O)C(=O)O)C(=O)O)C(=O)O)cc1)C(C)(C)C [SiFA-PSMA ligand 04] | 124.49 ± 2.61% | 97.9% | −3.33 ± 0.11 | 12.2 ± 1.9 nM | – |
| CC(C)(C)[Si](F)(c1ccc(C(=O)NC[C@@H](NC(=O)[C@@H](CCCNC(N)=O)NC(=O)[C@@H](CCCNC(N)=O)NC(=O)[C@H](N)CCCNC(N)=O)C(=O)N[C@H](CCCCNC(=O)CCC(=O)NCCC[C@@H](NC(=O)CC[C@H](NC(=O)N[C@@H](CCC(=O)O)C(=O)O)C(=O)O)C(=O)O)C(=O)O)cc1)C(C)(C)C [SiFA-PSMA ligand 05] (H-[dCit][dCit][dCit][dDap](Benzoyl(4-SiFtBu2))[dK]([Suc-X1])-OH) | 90.13 ± 6.13% | 95.7% | −3.17 ± 0.02 | 16.2 ± 2 nM | – |
